In PMC12029992, “Beyond-Rule-of-Five Compounds Are Not Different: In Vitro–In Vivo Extrapolation of Female CD-1 Mouse Clearance Based on Merck Healthcare KGaA Compound Set” (Pharmaceuticals, 2025):

Experiments:
[1] = Unbound fraction in the microsome incubation (fu,mic) by rapid equilibrium dialysis; format: in vitro ADME, human; details: for fu,mic: experimental unbound fraction in microsome incubation
Description: (§1) The free fraction in mouse plasma, in the microsome incubation, and in the hepatocyte incubation was determined using rapid equilibrium dialysis (RED) in Teflon-coated 96-well RED devices. Test compounds were added as DMSO stocks to the donor matrix at 0.5 µM (final DMSO concentration of 0.5%) and dialyzed against phosphate buffer (70 mM, pH 7.4) in the receiver compartment for 4 h at 37 °C.
(§2) The donor matrices differed for the various unbound fractions. […] Mouse serum was dialyzed overnight to exchange the carbonate with a phosphate buffer and was then used as a donor matrix in the experiment (50% serum in 70 mM phosphate buffer, pH 7.4). For fu,mic, human liver microsomes were used as a surrogate for mouse microsomes as a donor matrix in the experiment (0.8 mg protein/mL in 70 mM phosphate buffer, pH 7.4). For fu,hep, mouse hepatocytes were inactivated by incubating overnight at room temperature and then used as a donor matrix in the experiment (0.2 million cells/mL in 70 mM phosphate buffer, pH 7.4).
(§3) Samples were taken from both compartments after 4 h of incubation and analyzed via UHPLC-MS/MS. The unbound fraction, fu, was calculated as follows: fu=creceiver/cdonor
(§4) The fu values were interconverted from one matrix concentration to another using the following formula: fu2=fu1/M2/M1−fu1·M2/M1−1 where fu2 at matrix concentration M2 can be calculated from the fu1 value at matrix concentration M1.
(§5) The recovery was calculated to check the mass balance after the experiment by adding the total compound levels in both the donor and receiver compartments.

[2] = Unbound fraction in the hepatocyte incubation (fu,hep) by rapid equilibrium dialysis; format: in vitro ADME, mouse; details: for fu,hep: experimental unbound fraction in hepatocyte incubation
Description: as §1, §2, §3, §4, §5

[3] = recovery in equilibrium dialysis

Row | SMILES | fu,mic [1] [%] | fu,mic recovery ([1]; recovery in fu,mic dialysis) [%] | fu,hep [2] [%] | fu,hep recovery ([2]; recovery in fu,hep dialysis) [%] | fu,mic recovery [1, 3] [%] | fu,hep recovery [2, 3] [%]
1 | COc1cccc(OCCCN)c1-c1cc(Nc2cnc(C#N)cn2)n[nH]1 [MSC020] | 58.66 | 61 | 91.30 | 50 | – | –
2 | O=C(O)c1cc(-c2ccc(F)cc2F)ccc1O [MSC001] | 91.70 | 98 | 97.45 | 232 | – | –
3 | CNC(=O)c1cc(Oc2ccc3nc(N[C@@H]4CCCC[C@H]4O)sc3c2)ccn1 [MSC003] | 87.21 | 98 | 100.00 | 80 | – | –
4 | N#Cc1c[nH]c2c(C(=O)N3CCN(CCc4ccc(F)cc4)CC3)cccc12 [MSC213] | 35.01 | – | 87.81 | – | 87 | 136
